The text below walks through data of patent US20250270222A1, “AP2 ASSOCIATED KINASE 1 INHIBITORS AND USES THEREOF” (Satellos Bioscience Inc., priority 2023, published 2025).

Structures are written as SMILES. Where only a bound is given, the exact number is not on record here.

Common to all, as to assay type: biochemical
The target in test [1] is AAK1 (amino acids T27-A365) (Homo sapiens (Human), UniProt Q2M2I8). As to the kind of experiment: AAK1 pSENs assay. The note with it: ratio of AAK1 pSENs activity to GAK pSENs activity. The method, boiled down: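 Untagged, biotinylated E. coli-expressed AAK1 at 20 nM preincubated with compound 15 min at 25° C in HEPES pH 7.5 buffer with 10 mM MgCl2 and 1 mM DTT. Reaction started with AQT0759 and ATP, added as 30 uM and 70 uM solutions in equal volume.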

The target of test [2] is BIKE (amino acids S38-E345) (K320A, K321A) (Homo sapiens (Human), UniProt Q9NSY1, K320A/K321A). As to the kind of experiment: BIKE pSENs assay. How it is done:
The recombinant proteins were independently expressed in Esherichia coli BL21(DE3) cells cultured in Luria-Bertani (LB) medium until OD600 reached 0.6-0.8, then cooled to 15° C., and supplemented with 0.5 mM isopropyl 1-thio-D-galactopyranoside (IPTG) induce protein expression 16 h. Cells were harvested and resuspended in lysis buffer (50 mM HEPES pH 7.5, 500 mM NaCl, 5 mM imidazole, 5% glycerol, 0.5 mM Tris (2-carboxyethyl) phosphine (TCEP), cOmplete Protease Inhibitor Tablet (Roche)) and lysed by microfluidics high pressure homogenizer (UH-06, Union-Biotech). Proteins were purified using Ni-Affinity chromatography (His FF column, Bestchrom) and eluted stepwise in binding buffer with 20-300 mM imidazole. Removal of the hexahistidine tag was performed at 4° C. overnight using recombinant TEV protease and reacted with BirA to obtain the corresponding biotinylated-AAK1. BIKE or GAK proteins. Further separated in the reverse Strep column (Strep-Tactin® XT, IBA). The Biotin elution sample was collected containing untagged biotinylated protein was then purified by Ion-exchange chromatography (Mono Q 10/100 GL, Cytiva) and Size-exclusion chromatography (HiLoad 16/600 Superdex 200 pg, Cytiva). The pure protein was stored in a storage buffer 50 mM HEPES (pH 7.5), 300 mM NaCl, 5% glycerol at −80° C. Protein were characterized by SDS-PAGE. LC-MS and aSEC.
BIKE protein was dissolved at 20 nM in 1× enzyme solution (50 mM HEPES pH7.5, 10 mM MgCl2, 1 mM DTT, 1% glycerol, 0.5 mM EGTA, 0.01% Briji35, 0.02% BSA) and 12.5 ul was incubated with 250 nl DMSO or 250 nl compound in DMSO at 25° C. for 15 min. The reaction was started by addition of 12.5 ul of 30 uM AQT0759 (Assayquant, CSKS-AQT0759B) and 40 uM ATP which were diluted in 1× substrate dilution buffer (50 mM HEPES pH7.5, 10 mM MgCl2. 1 mM DTT, 1% glycerol, 0.5 mM EGTA, 0.01% Briji35).

Test [3] deals with GAK (amino acids Q25-N335) (Homo sapiens (Human), UniProt O14976). Nature of the test: GAK pSENs assay.
Sequence of GAK (amino acids Q25-N335) (O14976 25-335): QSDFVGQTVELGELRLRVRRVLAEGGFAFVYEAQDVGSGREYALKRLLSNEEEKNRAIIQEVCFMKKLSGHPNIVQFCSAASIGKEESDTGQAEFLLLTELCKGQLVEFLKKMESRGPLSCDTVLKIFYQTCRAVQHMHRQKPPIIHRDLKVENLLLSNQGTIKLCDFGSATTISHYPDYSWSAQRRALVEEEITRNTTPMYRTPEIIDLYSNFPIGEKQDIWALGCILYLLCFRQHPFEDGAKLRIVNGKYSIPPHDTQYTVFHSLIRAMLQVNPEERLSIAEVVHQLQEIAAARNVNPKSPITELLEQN

Sequence of BIKE (amino acids S38-E345) (K320A, K321A) (Q9NSY1 38-345 K320A/K321A): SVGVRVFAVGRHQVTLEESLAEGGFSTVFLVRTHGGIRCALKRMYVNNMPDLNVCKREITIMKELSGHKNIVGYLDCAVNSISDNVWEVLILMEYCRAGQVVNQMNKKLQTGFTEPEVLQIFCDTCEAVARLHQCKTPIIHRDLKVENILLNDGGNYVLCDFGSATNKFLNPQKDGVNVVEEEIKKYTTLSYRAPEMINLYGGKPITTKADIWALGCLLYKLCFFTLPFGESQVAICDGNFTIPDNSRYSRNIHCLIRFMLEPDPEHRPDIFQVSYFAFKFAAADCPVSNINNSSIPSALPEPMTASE
Sequence of AAK1 (amino acids T27-A365) (Q2M2I8 27-365): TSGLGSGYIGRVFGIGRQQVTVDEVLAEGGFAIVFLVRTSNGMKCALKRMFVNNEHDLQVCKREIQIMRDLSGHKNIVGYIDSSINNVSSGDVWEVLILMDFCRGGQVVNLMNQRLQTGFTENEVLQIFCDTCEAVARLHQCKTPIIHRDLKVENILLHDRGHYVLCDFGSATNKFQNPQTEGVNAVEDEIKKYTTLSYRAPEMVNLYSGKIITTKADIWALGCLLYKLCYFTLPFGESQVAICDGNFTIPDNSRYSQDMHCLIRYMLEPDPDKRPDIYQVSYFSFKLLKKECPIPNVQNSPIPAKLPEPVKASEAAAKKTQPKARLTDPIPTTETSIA

In the case of `O=C1NCC[C@H]1OC(=O)N1CCN(c2ccn3ncc(-c4cccnc4OC4CC4)c3n2)CC1` [Compound I-23, [(3R)-2-oxopyrrolidin-3-yl]-4-[3-[2-(cyclopropoxy)-3-pyridyl]pyrazolo[1,5-a]pyrimidin-5-yl]piperazine-1-carboxylate], in test [1], the “AAK1:GAK pSENs Selectivity” value was “B (B: 0.016-0.075)”. Besides, the IC50 in test [2] and in test [3] was above 1500 nM throughout.

Take `O=C1NCC[C@@H]1OC(=O)N1CCN(c2ccn3ncc(-c4cccnc4OC4CC4)c3n2)CC1` [Compound I-24, [(3S)-2-Oxopyrrolidin-3-yl]-4-[3-[2-(cyclopropoxy)-3-pyridyl]pyrazolo[1,5-a]pyrimidin-5-yl]piperazine-1-carboxylate]: the “AAK1:GAK pSENs Selectivity” value in test [1] is reported as “B (B: 0.016-0.075)”. The IC50 in test [2] and in test [3] was above 1500 nM in each case.

As to `O=C(O[C@@H]1CC(=O)N(C2CCNCC2)C1)N1CCN(c2ccn3ncc(-c4cccnc4OC4CC4)c3n2)CC1` [Compound I-33, (R)-5-Oxo-1-(piperidin-4-yl)pyrrolidin-3-yl 4-(3-(2-cyclopropoxypyridin-3-yl)pyrazolo[1,5-a]pyrimidin-5-yl)piperazine-1-carboxylate], in test [1], the “AAK1:GAK pSENs Selectivity” value was “D (D: 0.16-1.00)”. The IC50 in test [2] and in test [3] was above 1500 nM each time.

Take `C[C@H]1CN(c2ccn3ncc(-c4cccnc4OC4CC4)c3n2)CCN1C(=O)O[C@@H]1CNC(=O)C1` [Compound I-40, [(3S)-5-Oxopyrrolidin-3-yl](2S)-4-[3-[2-(cyclopropoxy)-3-pyridyl]pyrazolo[1,5-a]pyrimidin-5-yl]-2-methyl-piperazine-1-carboxylate]: the “AAK1:GAK pSENs Selectivity” value in test [1] was “B (B: 0.016-0.075)”. In addition, the IC50 in test [2] and in test [3] was above 1500 nM throughout.

Consider `N#C[C@@H]1CN(c2ccn3ncc(-c4cccnc4OC4CC4)c3n2)CCN1C(=O)O[C@@H]1CNC(=O)C1` [Compound I-41, (S)-5-Oxopyrrolidin-3-yl (S)-2-cyano-4-(3-(2-cyclopropoxypyridin-3-yl)pyrazolo[1,5-a]pyrimidin-5-yl)piperazine-1-carboxylate], for which, in test [1], the “AAK1:GAK pSENs Selectivity” value is “B (B: 0.016-0.075)”. Also, the IC50 in test [2] and in test [3] was above 1500 nM throughout.

For `O=C1C[C@H](OC(=O)N2CCN(c3ccn4ncc(-c5cccnc5OC5CC5)c4n3)C[C@H]2C(=O)O)CN1` [Compound I-41-4C, (S)-4-(3-(2-Cyclopropoxypyridin-3-yl)pyrazolo[1,5-a]pyrimidin-5-yl)-1-((((S)-5-oxopyrrolidin-3-yl)oxy)carbonyl)piperazine-2-carboxylic acid], in test [1], the “AAK1:GAK pSENs Selectivity” value is “D (D: 0.16-1.00)”. Moreover, the IC50 in test [2] and in test [3] was above 1500 nM in each case.

With `COC(=O)[C@@H]1CN(c2ccn3ncc(-c4cccnc4OC4CC4)c3n2)CCN1C(=O)O[C@@H]1CNC(=O)C1` [Compound I-41-5, 2-Methyl 1-((S)-5-oxopyrrolidin-3-yl) (S)-4-(3-(2-cyclopropoxypyridin-3-yl)pyrazolo[1,5-a]pyrimidin-5-yl)piperazine-1,2-dicarboxylate], in test [1], the “AAK1:GAK pSENs Selectivity” value is “C (C: 0.076-0.15)”. In addition, the IC50 in test [2] and in test [3] was above 1500 nM throughout.

In the case of `NC(=O)[C@@H]1CN(c2ccn3ncc(-c4cccnc4OC4CC4)c3n2)CCN1C(=O)O[C@@H]1CNC(=O)C1` [Compound I-41-6, (S)-5-Oxopyrrolidin-3-yl-(S)-2-carbamoyl-4-(3-(2-cyclopropoxypyridin-3-yl)pyrazolo[1,5-a]pyrimidin-5-yl)piperazine-1-carboxylate], the “AAK1:GAK pSENs Selectivity” value in test [1] is “B (B: 0.016-0.075)”. Moreover, the half-inhibitory concentration (IC50) in test [2] and in test [3] was above 1500 nM each time.

Consider `CN1CC(Oc2ncccc2-c2cnn3ccc(N4CCN(C(=O)O[C@@H]5CNC(=O)C5)CC4)nc23)C1` [Compound I-44, (S)-5-Oxopyrrolidin-3-yl 4-(3-(2-((1-methylazetidin-3-yl)oxy)pyridin-3-yl)pyrazolo[1,5-a]pyrimidin-5-yl)piperazine-1-carboxylate], for which, in test [1], the “AAK1:GAK pSENs Selectivity” value was “D (D: 0.16-1.00)”. For the same compound, the IC50 in test [2] and in test [3] was above 1500 nM in each case.

For `CC(C)Nc1ncccc1-c1cnn2ccc(N3CCN(C(=O)O[C@@H]4CNC(=O)C4)CC3)nc12` [Compound I-47, [(3S)-5-oxopyrrolidin-3-yl]4-[3-[2-(isopropylamino)-3-pyridyl]pyrazolo[1,5-a]pyrimidin-5-yl]piperazine-1-carboxylate], the “AAK1:GAK pSENs Selectivity” value in test [1] is “E (E: >1.00)”. Moreover, the half-maximal inhibitory concentration (IC50) in test [2] and in test [3] was above 1500 nM throughout.

Regarding `CC(C)(C)OC(=O)N1CC(Nc2ncccc2-c2cnn3ccc(N4CCN(C(=O)O[C@@H]5CNC(=O)C5)CC4)nc23)C1` [Compound I-48], in test [1], the “AAK1:GAK pSENs Selectivity” value is “D (D: 0.16-1.00)”. Moreover, the IC50 in test [2] and in test [3] was above 1500 nM each time.

With `CN(C)CCN1CC[C@@](C)(OC(=O)N2CCN(c3ccn4ncc(-c5cccnc5OC5CC5)c4n3)CC2)C1` [Compound I-53, (R)-1-(2-(dimethylamino)ethyl)-3-(methylpyrrolidin-3-yl)-4-(3-(2-cyclopropoxypyridin-3-yl)pyrazolo[1,5-a]pyrimidin-5-yl)piperazine-1-carboxylate], the “AAK1:GAK pSENs Selectivity” value in test [1] is listed as “A (A: ≤0.015)”. Also, the IC50 was 501 to 1500 nM in test [2] and above 1500 nM in test [3].

Regarding `O=C1C[C@H](OC(=O)N[C@@H]2CCN(c3ccn4ncc(-c5cccnc5OC5CC5)c4n3)C2)CN1` [Compound I-54, [(3S)-5-oxopyrrolidin-3-yl]N-[(3R)-1-[3-[2-(cyclopropoxy)-3-pyridyl]pyrazolo[1,5-a]pyrimidin-5-yl]pyrrolidin-3-yl]carbamate], the “AAK1:GAK pSENs Selectivity” value in test [1] is recorded as “C (C: 0.076-0.15)”. In addition, the IC50 in test [2] and in test [3] was above 1500 nM throughout.

In the case of `O=C1C[C@H](OC(=O)N[C@H]2CCN(c3ccn4ncc(-c5cccnc5OC5CC5)c4n3)C2)CN1` [Compound I-55, (S)-5-oxopyrrolidin-3-yl ((S)-1-(3-(2-cyclopropoxypyridin-3-yl)pyrazolo[1,5-a]pyrimidin-5-yl)pyrrolidin-3-yl)carbamate], the “AAK1:GAK pSENs Selectivity” value in test [1] is listed as “D (D: 0.16-1.00)”. For the same compound, the 50% inhibitory concentration (IC50) in test [2] and in test [3] was above 1500 nM throughout.

On to `C[C@@]1(OC(=O)N[C@@H]2CCN(c3ccn4ncc(-c5cccnc5OC5CC5)c4n3)C2)CCNC1` [Compound I-56, (R)-3-methylpyrrolidin-3-yl ((R)-1-(3-(2-cyclopropoxypyridin-3-yl)pyrazolo[1,5-a]pyrimidin-5-yl)pyrrolidin-3-yl)carbamate], for which the “AAK1:GAK pSENs Selectivity” value in test [1] is recorded as “C (C: 0.076-0.15)”. Further, the IC50 in test [2] and in test [3] was above 1500 nM throughout.

`O=C(O[C@H]1CO[C@H]2OCC[C@H]21)N1CCN(c2ccn3ncc(-c4ccncn4)c3n2)CC1` [Compound I-67]: the “AAK1:GAK pSENs Selectivity” value in test [1] is listed as “C (C: 0.076-0.15)”. Further, the IC50 in test [2] and in test [3] was above 1500 nM in each case.

Take `O=C(O[C@H]1CO[C@H]2OCC[C@H]21)N1CCN(c2ccn3ncc(-c4ccccc4OC4CC4)c3n2)CC1` [Compound I-68, [(3aS,4R,6aR)-2,3,3a, 4,5,6a-hexahydrofuro[2,3-b]furan-4-yl]4-[3-[2-(cyclopropoxy)phenyl]pyrazolo[1,5-a]pyrimidin-5-yl]piperazine-1-carboxylate]: the “AAK1:GAK pSENs Selectivity” value in test [1] was “A (A: ≤0.015)”. For the same compound, the half-inhibitory concentration (IC50) in test [2] and in test [3] was above 1500 nM throughout.

As to `COC(=O)N1CC(Oc2ncccc2-c2cnn3ccc(N4CCN(C(=O)O[C@@H]5CC(=O)N(CCOCc6ccccc6)C5)CC4)nc23)C1` [Compound I-84-6, [(3R)-1-(2-benzyloxyethyl)-5-oxo-pyrrolidin-3-yl]-4-[3-[2-(1-methoxycarbonyl-azetidin-3-yl)oxy-3-pyridyl]pyrazolo[1,5-a]pyrimidin-5-yl]piperazine-1-carboxylate], in test [1], the “AAK1:GAK pSENs Selectivity” value was “B (B: 0.016-0.075)”. Besides, the IC50 in test [2] and in test [3] was above 1500 nM each time.

For orientation: IC50 means the concentration that gives 50% inhibition. High values mean weaker potency, low ones greater potency.
